Legend:
Assay type in all cases: cell-based
[1] = test system: A549 cells; assay: Inhibition of proliferation of A549 cells (CCK8 or CTG); details: Homo sapiens, maximum concentration 10 μM, 5-fold dilution
Description: (1) A549 cells in the logarithmic growth phase were digested with 0.25% trypsin and counted. The cells were inoculated into 96-well plates at 2000 cells per well, and the 96-well plates were placed in an incubator containing 5% CO2 at 37° C. for 12 h of culture.
(§1) (2) Six concentration gradients for the compounds to be tested (with the maximum drug concentration of 10 μM and 5-fold dilution) were set. After the cells adhered to the wall, the compounds to be tested were serially diluted with DMSO, then diluted with 1640 complete medium to reach a concentration 1000 times the final concentration, and added to the corresponding wells.
(§2) (3) After the corresponding concentrations of the compounds to be tested were added, the plates were incubated in an incubator with 5% carbon dioxide at 37° C., and then the cell viability rate at each drug concentration was determined by CCK8 or CTG method. In addition, the IC50 value was calculated.

[2] = test system: HK-2 cells; assay: Inhibition of proliferation of HK-2 cells (normal cells; CCK8 or CTG); details: Homo sapiens, maximum concentration 10 μM, 5-fold dilution
Description: (1) HK-2 cells in the logarithmic growth phase were digested with 0.25% trypsin and counted. The cells were inoculated into 96-well plates at 2000 cells per well, and the 96-well plates were placed and cultured in an incubator containing 5% CO2 at 37° C. for 12 h.
as §1, with “for the compound to be” for “for the compounds to be”
as §2

[3] = test system: HL60 cells; assay: Inhibition of proliferation of HL60 tumor cells (CCK8 or CTG); details: Homo sapiens, HL-60
Description: The effect of the compound of the present disclosure on the proliferation of tumor cells was determined using the following method. The HL60 cells used in the method were purchased from Nanjing Kebai Biotechnology Co., Ltd., and the kit was the Cell Counting Kit-8/CCK-8 kit of MCE Company (article number: HY—K0301, specification: 3000T).
(1) HL60 cells in logarithmic growth phase were prepared into a cell suspension. The cell suspension was added into a 96-well plate at 5000 cells/well. The 96-well cell culture plate was placed in a CO2 incubator for 4 h of incubation of suspended cells or for 12 h of incubation of adherent cells.
(2) The compounds to be tested were diluted with IMDM complete culture medium to reach a concentration twice the testing concentration, and added to the corresponding wells.
as §2

Row | IC50 [1] [nM] | IC50 [3] [nM] | SMILES | IC50 [2] [nM]
1 | 0.49 |  | CC(C)NC1CC(C(=O)Nc2sc3c(c2-c2nc4ccccc4s2)CCNC3)C1 (stereo not drawn) [Compound 001, N-(3-(benzo[d]thiazol-2-yl)-4,5,6,7-tetrahydrothieno[2,3-c]pyridin-2-yl)-3-(isopropylamino)cyclobutane-1-carboxamide] | 759
2 | 0.53 | < 150 | CC(C)NC1CC(C(=O)Nc2sc3c(c2-c2nc4ccc(-c5ccc(N6CCNCC6)nc5)cc4s2)CCNC3)C1 (stereo not drawn) [Compound 009, 3-(isopropylamino)-N-(3-(6-(6-(piperazin-1-yl)pyridin-3-yl)benzo[d]thiazol-2-yl)-4,5,6,7-tetrahydrothieno [2,3-c]pyridin-2-yl) cyclobutane-1-carboxamide] | 
3 |  | < 150 | Cc1cn(-c2ccc3nc(-c4c(NC(=O)C5CC(NC(C)C)C5)sc5c4CCNC5)sc3c2)cn1 (stereo not drawn) [Compound 014, 3-(isopropylamino)-N-(3-(6-(4-methyl-1H-imidazol-1-yl)benzo[d]thiazol-2-yl)-4,5,6,7-tetrahydrothieno[2,3-c]pyridin-2-yl)cyclobutane-1-carboxamide] | 
4 | 4.41 | < 150 | CC(C)NC1CC(C(=O)Nc2sc3c(c2-c2nc4ccc(C5=CCN(C)CC5)cc4s2)CCNC3)C1 (stereo not drawn) [Compound 017, 3-(isopropylamino)-N-(3-(6-(1-methyl-1,2,3,6-tetrahydropyridin-4-yl)benzo[d]thiazol-2-yl)-4,5,6,7-tetrahydrothieno[2,3-c]pyridin-2-yl)cyclobutane-1-carboxamide] | 
5 |  | < 150 | CC(C)NC1CC(C(=O)Nc2sc3c(c2-c2nc4cc(C5=CCNCC5)ccc4s2)CCNC3)C1 (stereo not drawn) [Compound 022, 3-(isopropylamino)-N-(3-(5-(1,2,3,6-tetrahydropyridin-4-yl)benzo[d]thiazol-2-yl)-4,5,6,7-tetrahydrothieno [2,3-c]pyridin-2-yl) cyclobutane-1-carboxamide] | 
6 | 18.3 | < 150 | CC(C)NC1CC(C(=O)Nc2sc3c(c2-c2nc4ccc(-c5ccc(C6=CCNCC6)nc5)cc4s2)CCNC3)C1 (stereo not drawn) [Compound 047, 3-(isopropylamino)-N-(3-(6-(1′,2′,3′,6′-tetrahydro-[2, 4′-bipyridin]-5-yl)benzo [d]thiazol-2-yl)-4,5,6,7-tetrahydrothieno[2,3-c]pyridin-2-yl)cyclobutane-1-carboxamide] | 1610
7 | 3.35 | < 150 | CC(C)NC1CC(C(=O)Nc2sc3c(c2-c2nc4ccc(C5=CCNCC5)cc4s2)CCNC3)C1 (stereo not drawn) [Compound 048, 3-(isopropylamino)-N-(3-(6-(1,2,3,6-tetrahydropyridin-4-yl)benzo[d]thiazol-2-yl)-4,5,6,7-tetrahydrothieno[2,3-c]pyridin-2-yl)cyclobutane-1-formylamino] | 1160
8 | 21.8 |  | CC(C)NC1CC(C(=O)Nc2sc3c(c2-c2nc4ccc(C5=CCNCC5)cc4s2)CCN(C2CCCC2)C3)C1 (stereo not drawn) [Compound 054, N-(6-cyclopentyl-3-(6-(1,2,3,6-tetrahydropyridin-4-yl)benzo[d]thiazol-2-yl)-4,5,6,7-tetrahydrothieno[2,3-c]pyridin-2-yl)-3-(isopropylamino)cyclobutane-1-carboxamide] | 
9 | 16.8 |  | CC(C)NC1CCC(C(=O)Nc2sc3c(c2-c2nc4ccc(-c5ccc(N6CCNCC6)nc5)cc4s2)CCNC3)C1 (stereo not drawn) [Compound 060, 3-(isopropylamino)-N-(3-(6-(6-(piperazin-1-yl)pyridin-3-yl)benzo[d]thiazol-2-yl)-4,5,6,7-tetrahydrothieno [2,3-c]pyridin-2-yl) cyclopentane-1-carboxamide] | 1100
10 | 7.8 | < 150 | CC(C)NC1CCC(C(=O)Nc2sc3c(c2-c2nc4ccc(-c5ccc(N6CCNCC6)nc5)cc4s2)CCNC3)CC1 (stereo not drawn) [Compound 069, 4-(isopropylamino)-N-(3-(6-(6-(piperazin-1-yl)pyridin-3-yl)benzo[d]thiazol-2-yl)-4,5,6,7-tetrahydrothieno [2,3-c]pyridin-2-yl) cyclohexane-1-carboxamide] | 2440
11 |  | < 150 | COCCNC1CC(C(=O)Nc2sc3c(c2-c2nc4ccc(C5=CCNCC5)cc4s2)CCNC3)C1 (stereo not drawn) [Compound 119, 3-((2-methoxyethyl)amino)-N-(3-(6-(1,2,3,6-tetrahydropyridin-4-yl)benzo [d]thiazol-2-yl)-4,5,6,7-tetrahydrothieno[2,3-c]pyridin-2-yl)cyclobutane-1-carboxamide] | 
12 | 7.37 |  | CC(C)NC1CCC(C(=O)Nc2sc3c(c2-c2nc4ccc(C5=CCNCC5)cc4s2)CCNC3)CC1 (stereo not drawn) [Compound 124, 4-(isopropylamino)-N-(3-(6-(1,2,3,6-tetrahydropyridin-4-yl)benzo[d]thiazol-2-yl)-4,5,6,7-tetrahydrothieno [2,3-c]pyridin-2-yl) cyclohexane-1-carboxamide] | 3260

The next lines start with the compound.

Row | SMILES | IC50 [1] [nM] | IC50 [3] [nM] | IC50 [2] [nM]
13 | CC(C)NCCNC(=O)Nc1sc2c(c1-c1nc3ccccc3s1)CCNC2 [Compound 077, 1-(3-(benzo[d]thiazol-2-yl)-4,5,6,7-tetrahydrothieno[2,3-c]pyridin-2-yl)-3-(2-(isopropylamino)ethyl) urea] | 43.4 | < 150 | 1260
14 | CC(C)NCCCNc1sc2c(c1-c1nc3ccc(-c4ccc(N5CCNCC5)nc4)cc3s1)CCNC2 [Compound 082, N^1-isopropyl-N^3-(3-(6-(6-(piperazin-1-yl)pyridin-3-yl)benzo[d]thiazol-2-yl)-4,5,6,7-tetrahydrothieno[2,3-c]pyridin-2-yl) propane-1,3-diamine] |  |  | 4510
15 | CN(C)CCNC(=O)CNc1sc2c(c1-c1nc3ccccc3s1)CCNC2 [Compound 086, 2-((3-(benzo[d]thiazol-2-yl)-4,5,6,7-tetrahydrothieno [2,3-c]pyridin-2-yl)amino)-N-(2-(dimethylamino)ethyl)acetamide] |  |  | 7560
16 | Cc1cn(-c2ccc3sc(-c4c(NC(=O)C5CC(NC(C)C)C5)sc5c4CCNC5)nc3c2)cn1 (stereo not drawn) [Compound 121, 3-(isopropylamino)-N-(3-(5-(4-methyl-1H-imidazol-1-yl)benzo[d]thiazol-2-yl)-4,5,6,7-tetrahydrothieno [2,3-c]pyridin-2-yl) cyclobutane-1-carboxamide] |  | < 150 | 725
17 | CC(=O)N1CCc2c(sc(NC(=O)C3CC(NC(C)C)C3)c2-c2nc3ccc(-c4ccc(N5CCNCC5)nc4)cc3s2)C1 (stereo not drawn) [Compound 122, N-(6-acetyl-3-(6-(6-(piperazin-1-yl)pyridin-3-yl)benzo[d]thiazol-2-yl)-4,5,6,7-tetrahydrothieno[2,3-c]pyridin-2-yl)-3-(isopropylamino)cyclobutane-1-carboxamide] |  |  | 1040
18 | CC(C)NC1CCC(C(=O)Nc2sc3c(c2-c2nc4ccc(Br)cc4s2)CCNC3)CC1 (stereo not drawn) [Compound 123, N-(3-(6-bromobenzo[d]thiazol-2-yl)-4,5,6,7-tetrahydrothieno[2,3-c]pyridin-2-yl)-4-(isopropylamino) cyclohexane-1-carboxamide] |  |  | 937
19 | CNCCNC(=O)C(=O)Nc1sc2c(c1-c1nc3ccc(C4=CCNCC4)cc3s1)CCNC2 [Compound 125, N^1-(2-(methylamino)ethyl)-N^2-(3-(6-(1,2,3,6-tetrahydropyridin-4-yl)benzo [d]thiazol-2-yl)-4,5,6,7-tetrahydrothieno[2,3-c]pyridin-2-yl)oxalamide] | 65.2 |  | 11100
20 | CN1CCN(c2sc3c(c2-c2nc4ccc(-c5ccc(N6CCNCC6)nc5)cc4s2)CCNC3)CC1 [Compound 126, 2-(2-(4-methylpiperazin-1-yl)-4,5,6,7-tetrahydrothieno [2,3-c]pyridin-3-yl)-6-(6-(piperazin-1-yl)pyridin-3-yl)benzo[d]thiazole] |  |  | 1180
21 | CC(C)NC1CC(C(=O)N(C)c2sc3c(c2-c2nc4ccc(-c5ccc(N6CCNCC6)nc5)cc4s2)CCNC3)C1 (stereo not drawn) [Compound 134, 3-(isopropylamino)-N-methyl-N-(3-(6-(6-(piperazin-1-yl)pyridin-3-yl)benzo [d]thiazol-2-yl)-4,5,6,7-tetrahydrothieno[2,3-c]pyridin-2-yl)cyclobutane-1-carboxamide] | 0.66 |  | 
22 | CC(=O)NC1CC(C(=O)Nc2sc3c(c2-c2nc4ccc(C5=CCN(C(C)=O)CC5)cc4s2)CCNC3)C1 (stereo not drawn) [Compound 141] |  |  | 1460
23 | CC(C)NCCC(=O)Nc1sc2c(c1-c1nc(-c3ccccc3)cs1)CCNC2 [Compound b, reference compound] | 98.3 |  | 242

From US20260274859A1, “FUSED POLYCYCLIC DERIVATIVE AND USE THEREOF” (ZHEJIANG HISUN PHARMACEUTICAL CO., LTD., priority 2023, published 2026)
